In the supplement of paper PMC10307832:

Tests used:
Test in all cases: relative viability (nuclei count vs DMSO), 5 days (fraction); higher = more cells survive
Bleomycin + Phenformin = compound: CC1=C(N=C(N=C1N)[C@H](CC(=O)N)NC[C@@H](C(=O)N)N)C(=O)N[C@@H]([C@H](C2=CN=CN2)OC3C(C(C(C(O3)CO)O)O)OC4C(C(C(C(O4)CO)O)OC(=O)N)O)C(=O)N[C@H](C)[C@H]([C@H](C)C(=O)N[C@@H]([C@@H](C)O)C(=O)NCCC5=NC(=CS5)C6=NC(=CS6)C(=O)NCCC[S+](C)C)O [Bleomycin] + N=C(N)NC(=N)NCCc1ccccc1 [Phenformin] (partner 250 µM); conditions: main component drawn
How it was run: (§1)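 One day after seeding in 1536-well plates, lung cancer cell lines were dosed by pin tool. Dosing was either single-drug or a fixed anchor-drug dose plus five library-drug doses (not always all listed) in √10 steps. After 5 days, nuclei were stained in one fix-and-stain step and counted on 4× images, and relative viability is the nuclei count of treated wells over that of vehicle wells, given as the median of duplicate plates.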

Etoposide + Vorinostat = compound: COc1cc([C@@H]2c3cc4c(cc3[C@@H](O[C@@H]3O[C@@H]5CO[C@@H](C)O[C@H]5[C@H](O)[C@H]3O)[C@H]3COC(=O)[C@H]23)OCO4)cc(OC)c1O [Etoposide] + O=C(CCCCCCC(=O)Nc1ccccc1)NO [Vorinostat] (partner 1 µM)
How it was run: as §1

Etoposide + Pictilisib = compound: COc1cc([C@@H]2c3cc4c(cc3[C@@H](O[C@@H]3O[C@@H]5CO[C@@H](C)O[C@H]5[C@H](O)[C@H]3O)[C@H]3COC(=O)[C@H]23)OCO4)cc(OC)c1O [Etoposide] + CS(=O)(=O)N1CCN(Cc2cc3nc(-c4cccc5[nH]ncc45)nc(N4CCOCC4)c3s2)CC1 [Pictilisib] (partner 1 µM)
How it was run: as §1

Etoposide + Trametinib = compound: COc1cc([C@@H]2c3cc4c(cc3[C@@H](O[C@@H]3O[C@@H]5CO[C@@H](C)O[C@H]5[C@H](O)[C@H]3O)[C@H]3COC(=O)[C@H]23)OCO4)cc(OC)c1O [Etoposide] + CC(=O)Nc1cccc(-n2c(=O)n(C3CC3)c(=O)c3c(Nc4ccc(I)cc4F)n(C)c(=O)c(C)c32)c1 [Trametinib] (partner 0.02 µM)
How it was run: as §1

## NCI-H2405
Bleomycin + Phenformin; first compound 0.01 µM
  relative viability: 0.333
Bleomycin + Phenformin; first compound 0.03162 µM
  relative viability: 0.399
Bleomycin + Phenformin; first compound 0.1 µM
  relative viability: 0.383
Bleomycin + Phenformin; first compound 0.3162 µM
  relative viability: 0.263
Bleomycin + Phenformin; first compound 1 µM
  relative viability: 0.262
Etoposide + Vorinostat; first compound 0.01 µM
  relative viability: 1.11
Etoposide + Vorinostat; first compound 0.03162 µM
  relative viability: 1.12
Etoposide + Vorinostat; first compound 0.1 µM
  relative viability: 0.765
Etoposide + Vorinostat; first compound 0.3162 µM
  relative viability: 0.742
Etoposide + Vorinostat; first compound 1 µM
  relative viability: 0.27
Etoposide + Pictilisib; first compound 0.01 µM
  relative viability: 0.455
Etoposide + Pictilisib; first compound 0.03162 µM
  relative viability: 0.508
Etoposide + Pictilisib; first compound 0.1 µM
  relative viability: 0.268
Etoposide + Pictilisib; first compound 0.3162 µM
  relative viability: 0.399
Etoposide + Pictilisib; first compound 1 µM
  relative viability: 0.315
Etoposide + Trametinib; first compound 0.01 µM
  relative viability: 0.64
Etoposide + Trametinib; first compound 0.03162 µM
  relative viability: 0.728
Etoposide + Trametinib; first compound 0.1 µM
  relative viability: 0.505
Etoposide + Trametinib; first compound 0.3162 µM
  relative viability: 0.544
Etoposide + Trametinib; first compound 1 µM
  relative viability: 0.4

## NCI-H23
Bleomycin + Phenformin; first compound 0.01 µM
  relative viability: 0.518
Bleomycin + Phenformin; first compound 0.03162 µM
  relative viability: 0.586
Bleomycin + Phenformin; first compound 0.1 µM
  relative viability: 0.357
Bleomycin + Phenformin; first compound 0.3162 µM
  relative viability: 0.207
Bleomycin + Phenformin; first compound 1 µM
  relative viability: 0.17
Etoposide + Vorinostat; first compound 0.01 µM
  relative viability: 0.633
Etoposide + Vorinostat; first compound 0.03162 µM
  relative viability: 0.604
Etoposide + Vorinostat; first compound 0.1 µM
  relative viability: 0.316
Etoposide + Vorinostat; first compound 0.3162 µM
  relative viability: 0.262
Etoposide + Vorinostat; first compound 1 µM
  relative viability: 0.145
Etoposide + Pictilisib; first compound 0.01 µM
  relative viability: 0.433
Etoposide + Pictilisib; first compound 0.03162 µM
  relative viability: 0.487
Etoposide + Pictilisib; first compound 0.1 µM
  relative viability: 0.275
Etoposide + Pictilisib; first compound 0.3162 µM
  relative viability: 0.334
Etoposide + Pictilisib; first compound 1 µM
  relative viability: 0.185
Etoposide + Trametinib; first compound 0.01 µM
  relative viability: 0.299
Etoposide + Trametinib; first compound 0.03162 µM
  relative viability: 0.342
Etoposide + Trametinib; first compound 0.1 µM
  relative viability: 0.309
Etoposide + Trametinib; first compound 0.3162 µM
  relative viability: 0.265
Etoposide + Trametinib; first compound 1 µM
  relative viability: 0.24

## NCI-H1793
Bleomycin + Phenformin; first compound 0.01 µM
  relative viability: 0.389
Bleomycin + Phenformin; first compound 0.03162 µM
  relative viability: 0.417
Bleomycin + Phenformin; first compound 0.1 µM
  relative viability: 0.349
Bleomycin + Phenformin; first compound 0.3162 µM
  relative viability: 0.211
Bleomycin + Phenformin; first compound 1 µM
  relative viability: 0.131
Etoposide + Vorinostat; first compound 0.03162 µM
  relative viability: 0.934
Etoposide + Vorinostat; first compound 0.1 µM
  relative viability: 0.353
Etoposide + Vorinostat; first compound 0.3162 µM
  relative viability: 0.427
Etoposide + Vorinostat; first compound 1 µM
  relative viability: 0.151
Etoposide + Pictilisib; first compound 0.01 µM
  relative viability: 0.321
Etoposide + Pictilisib; first compound 0.03162 µM
  relative viability: 0.433
Etoposide + Pictilisib; first compound 0.3162 µM
  relative viability: 0.313
Etoposide + Pictilisib; first compound 1 µM
  relative viability: 0.243
Etoposide + Trametinib; first compound 0.03162 µM
  relative viability: 0.484
Etoposide + Trametinib; first compound 0.1 µM
  relative viability: 0.357
Etoposide + Trametinib; first compound 0.3162 µM
  relative viability: 0.352
Etoposide + Trametinib; first compound 1 µM
  relative viability: 0.293

## EKVX
Bleomycin + Phenformin; first compound 0.01 µM
  relative viability: 0.234
Bleomycin + Phenformin; first compound 0.03162 µM
  relative viability: 0.255
Bleomycin + Phenformin; first compound 0.1 µM
  relative viability: 0.196
Bleomycin + Phenformin; first compound 0.3162 µM
  relative viability: 0.2
Bleomycin + Phenformin; first compound 1 µM
  relative viability: 0.157
Etoposide + Vorinostat; first compound 0.01 µM
  relative viability: 0.543
Etoposide + Vorinostat; first compound 0.03162 µM
  relative viability: 0.746
Etoposide + Vorinostat; first compound 0.1 µM
  relative viability: 0.512
Etoposide + Vorinostat; first compound 0.3162 µM
  relative viability: 0.444
Etoposide + Vorinostat; first compound 1 µM
  relative viability: 0.253
Etoposide + Pictilisib; first compound 0.01 µM
  relative viability: 0.447
Etoposide + Pictilisib; first compound 0.03162 µM
  relative viability: 0.429
Etoposide + Pictilisib; first compound 0.1 µM
  relative viability: 0.208
Etoposide + Pictilisib; first compound 0.3162 µM
  relative viability: 0.309
Etoposide + Pictilisib; first compound 1 µM
  relative viability: 0.241
Etoposide + Trametinib; first compound 0.01 µM
  relative viability: 0.287
Etoposide + Trametinib; first compound 0.03162 µM
  relative viability: 0.382
Etoposide + Trametinib; first compound 0.1 µM
  relative viability: 0.303
Etoposide + Trametinib; first compound 0.3162 µM
  relative viability: 0.295
Etoposide + Trametinib; first compound 1 µM
  relative viability: 0.169

## HOP-62
Bleomycin + Phenformin; first compound 0.01 µM
  relative viability: 0.395
Bleomycin + Phenformin; first compound 0.03162 µM
  relative viability: 0.447
Bleomycin + Phenformin; first compound 0.1 µM
  relative viability: 0.239
Bleomycin + Phenformin; first compound 0.3162 µM
  relative viability: 0.185
Bleomycin + Phenformin; first compound 1 µM
  relative viability: 0.105
Etoposide + Vorinostat; first compound 0.01 µM
  relative viability: 0.631
Etoposide + Vorinostat; first compound 0.03162 µM
  relative viability: 0.711
Etoposide + Vorinostat; first compound 0.1 µM
  relative viability: 0.381
Etoposide + Vorinostat; first compound 0.3162 µM
  relative viability: 0.267
Etoposide + Vorinostat; first compound 1 µM
  relative viability: 0.115
Etoposide + Pictilisib; first compound 0.01 µM
  relative viability: 0.796
Etoposide + Pictilisib; first compound 0.03162 µM
  relative viability: 1.01
Etoposide + Pictilisib; first compound 0.1 µM
  relative viability: 0.321
Etoposide + Pictilisib; first compound 0.3162 µM
  relative viability: 0.448
Etoposide + Pictilisib; first compound 1 µM
  relative viability: 0.149
Etoposide + Trametinib; first compound 0.01 µM
  relative viability: 0.348
Etoposide + Trametinib; first compound 0.03162 µM
  relative viability: 0.395
Etoposide + Trametinib; first compound 0.1 µM
  relative viability: 0.325
Etoposide + Trametinib; first compound 0.3162 µM
  relative viability: 0.343
Etoposide + Trametinib; first compound 1 µM
  relative viability: 0.316

## NCI-H2228
Bleomycin + Phenformin; first compound 0.01 µM
  relative viability: 0.314
Bleomycin + Phenformin; first compound 0.03162 µM
  relative viability: 0.312
Bleomycin + Phenformin; first compound 0.1 µM
  relative viability: 0.301
Bleomycin + Phenformin; first compound 0.3162 µM
  relative viability: 0.185
Bleomycin + Phenformin; first compound 1 µM
  relative viability: 0.147
Etoposide + Vorinostat; first compound 0.01 µM
  relative viability: 0.577
Etoposide + Vorinostat; first compound 0.03162 µM
  relative viability: 0.668
Etoposide + Vorinostat; first compound 0.1 µM
  relative viability: 1.07
Etoposide + Vorinostat; first compound 0.3162 µM
  relative viability: 0.272
Etoposide + Vorinostat; first compound 1 µM
  relative viability: 0.142
Etoposide + Pictilisib; first compound 0.01 µM
  relative viability: 0.351
Etoposide + Pictilisib; first compound 0.03162 µM
  relative viability: 0.411
Etoposide + Pictilisib; first compound 0.1 µM
  relative viability: 0.167
Etoposide + Pictilisib; first compound 0.3162 µM
  relative viability: 0.229
Etoposide + Pictilisib; first compound 1 µM
  relative viability: 0.109
Etoposide + Trametinib; first compound 0.01 µM
  relative viability: 0.485
Etoposide + Trametinib; first compound 0.03162 µM
  relative viability: 0.576
Etoposide + Trametinib; first compound 0.1 µM
  relative viability: 0.32
Etoposide + Trametinib; first compound 0.3162 µM
  relative viability: 0.279
Etoposide + Trametinib; first compound 1 µM
  relative viability: 0.168

## NCI-H358
Bleomycin + Phenformin; first compound 0.01 µM
  relative viability: 0.343
Bleomycin + Phenformin; first compound 0.03162 µM
  relative viability: 0.352
Bleomycin + Phenformin; first compound 0.1 µM
  relative viability: 0.325
Bleomycin + Phenformin; first compound 0.3162 µM
  relative viability: 0.171
Bleomycin + Phenformin; first compound 1 µM
  relative viability: 0.147
Etoposide + Vorinostat; first compound 0.01 µM
  relative viability: 0.663
Etoposide + Vorinostat; first compound 0.03162 µM
  relative viability: 0.508
Etoposide + Vorinostat; first compound 0.1 µM
  relative viability: 0.411
Etoposide + Vorinostat; first compound 0.3162 µM
  relative viability: 0.107
Etoposide + Vorinostat; first compound 1 µM
  relative viability: 0.0977
Etoposide + Pictilisib; first compound 0.01 µM
  relative viability: 0.382
Etoposide + Pictilisib; first compound 0.03162 µM
  relative viability: 0.336
Etoposide + Pictilisib; first compound 0.1 µM
  relative viability: 0.259
Etoposide + Pictilisib; first compound 0.3162 µM
  relative viability: 0.23
Etoposide + Pictilisib; first compound 1 µM
  relative viability: 0.16
Etoposide + Trametinib; first compound 0.01 µM
  relative viability: 0.141
Etoposide + Trametinib; first compound 0.03162 µM
  relative viability: 0.122
Etoposide + Trametinib; first compound 0.1 µM
  relative viability: 0.119
Etoposide + Trametinib; first compound 0.3162 µM
  relative viability: 0.118
Etoposide + Trametinib; first compound 1 µM
  relative viability: 0.0938

## EPLC-272H
Bleomycin + Phenformin; first compound 0.01 µM
  relative viability: 0.247
Bleomycin + Phenformin; first compound 0.03162 µM
  relative viability: 0.286
Bleomycin + Phenformin; first compound 0.1 µM
  relative viability: 0.228
Bleomycin + Phenformin; first compound 0.3162 µM
  relative viability: 0.173
Bleomycin + Phenformin; first compound 1 µM
  relative viability: 0.116
Etoposide + Vorinostat; first compound 0.01 µM
  relative viability: 0.415
Etoposide + Vorinostat; first compound 0.03162 µM
  relative viability: 0.464
Etoposide + Vorinostat; first compound 0.1 µM
  relative viability: 0.426
Etoposide + Vorinostat; first compound 0.3162 µM
  relative viability: 0.267
Etoposide + Vorinostat; first compound 1 µM
  relative viability: 0.235
Etoposide + Pictilisib; first compound 0.01 µM
  relative viability: 0.345
Etoposide + Pictilisib; first compound 0.03162 µM
  relative viability: 0.371
Etoposide + Pictilisib; first compound 0.1 µM
  relative viability: 0.281
Etoposide + Pictilisib; first compound 0.3162 µM
  relative viability: 0.278
Etoposide + Pictilisib; first compound 1 µM
  relative viability: 0.233
Etoposide + Trametinib; first compound 0.01 µM
  relative viability: 0.33
Etoposide + Trametinib; first compound 0.03162 µM
  relative viability: 0.284
Etoposide + Trametinib; first compound 0.1 µM
  relative viability: 0.254
Etoposide + Trametinib; first compound 0.3162 µM
  relative viability: 0.267
Etoposide + Trametinib; first compound 1 µM
  relative viability: 0.267
